Measurements as given in patent US10787453B2, “Octahydropyrrolopyrroles their preparation and use” (The Trustees of Columbia University in the City of New York, priority 2013, dated 2020).

Key:
[1] = system: wild-type and Abca4−/− mice; test: Efficacy in a mammalian model; assay type: in vivo, mouse; settings: orally dosed for 3 weeks at 30 mg/kg
Protocol: (§1) The effectiveness of the compounds listed in Example 1-46 are tested in wild-type and Abca4−/− mice. The Abca4−/− mouse model manifests accelerated accumulation of lipofuscin in the RPE and is considered a pre-clinical efficacy model for a drug reducing lipofuscin accumulation. Compounds are orally dosed for 3 weeks at 30 mg/kg. There is a reduction in the serum RBP4 level in treated animals. The levels of A2E/isoA2E and other bisretinoids are reduced in treated mice.
as §1, with “octahydropyrrolopyrroles 66 and 67” for “compounds listed in Example 1-46”
as §1, with “octahydropyrrolopyrroles of the present invention” for “compounds listed in Example 1-46”

RBP4-TTR interaction [2] = biological target: T1, RBP4-TTR interaction (Homo sapiens (Human), UniProt P02753); test: TR-FRET (HTRF) assay for retinol-induced RBP4-TTR interaction; assay type: biochemical; settings: for IC50: in the presence of 1 μM retinol, read-out: HTRF assay for antagonists of RBP4-TTR interaction IC50
Description: TR-FRET Assay for Retinol-Induced RBP4-TTR Interaction
Binding of a desired RBP4 antagonist displaces retinol and induces hindrance for RBP4-TTR interaction resulting in the decreased FRET signal (FIG. 7). Bacterially expressed MBP-RBP4 and untagged TTR were used in this assay. For the use in the TR-FRET assay the maltose binding protein (MBP)-tagged human RBP4 fragment (amino acids 19-201) was expressed in the Gold(DE3)pLysS E. coli strain (Stratagene) using the pMAL-c4x vector. Following cell lysis, recombinant RBP4 was purified from the soluble fraction using the ACTA FPLC system (GE Healthcare) equipped with the 5-ml the MBP Trap HP column. Human untagged TTR was purchased from Calbiochem. Untagged TTR was labeled directly with Eu^3+ Cryptate-NHS using the HTRF Cryptate Labeling kit from CisBio following the manufacturer's recommendations. HTRF assay was performed in white low volume 384 well plates (Greiner-Bio) in a final assay volume of 16 μl per well. The reaction buffer contained 10 mM Tris-HCl pH 7.5, 1 mM DTT, 0.05% NP-40, 0.05% Prionex, 6% glycerol, and 400 mM KF. Each reaction contained 60 nM MBP-RBP4 and 2 nM TTR-Eu along with 26.7 nM of anti-MBP antibody conjugated with d2 (Cisbio). Titration of test compounds in this assay was conducted in the presence of 1 μM retinol. All reactions were assembled in the dark under dim red light and incubated overnight at +4° C. wrapped in aluminum foil. TR-FRET signal was measured in the SpectraMax M5e Multimode Plate Reader (Molecular Device). Fluorescence was excited at 337 nm and two readings per well were taken: Reading 1 for time-gated energy transfer from Eu(K) to d2 (337 nm excitation, 668 nm emission, counting delay 75 microseconds, counting window 100 microseconds) and Reading 2 for Eu(K) time-gated fluorescence (337 nm excitation, 620 nm emission, counting delay 400 microseconds, counting window 400 microseconds). The TR-FRET signal was expressed as the ratio of fluorescence intensity: Flu665/Flu620×10,000.

RBP4 [3] = biological target: T2, RBP4 (Homo sapiens (Human), UniProt P02753); test: Scintillation proximity RBP4 binding assay (SPA); settings: for IC50: 10 nM 3H-Retinol, 50 nM biotinylated RBP4
Protocol: Scintillation Proximity RBP4 Binding Assay
Untagged human RBP4 purified from urine of tubular proteinuria patients was purchased from Fitzgerald Industries International. It was biotinylated using the EZ-Link Sulfo-NHS-LC-Biotinylation kit from Pierce following the manufacturer's recommendations. Binding experiments were performed in 96-well plates (OptiPlate, PerkinElmer) in a final assay volume of 100 μl per well in SPA buffer (1×PBS, pH 7.4, 1 mM EDTA, 0.1% BSA, 0.5% CHAPS). The reaction mix contained 10 nM ^3H-Retinol (48.7 Ci/mmol; PerkinElmer), 0.3 mg/well Streptavidin-PVT beads, 50 nM biotinylated RBP4 and a test compound. Nonspecific binding was determined in the presence of 20 μM of unlabeled retinol. The reaction mix was assembled in the dark under dim red light. The plates were sealed with clear tape (TopSeal-A: 96-well microplate, PerkinElmer), wrapped in the aluminum foil, and allowed to equilibrate 6 hours at room temperature followed by overnight incubation at +4° C. Radiocounts were measured using a TopCount NXT counter (Packard Instrument Company).

Abca4−/− mice = settings: cited from earlier work
serum RBP4 and retinol = settings: in vivo; cited from earlier work
mice = settings: cited from earlier work
RBP4-TTR interaction [4] = biological target: T1, RBP4-TTR interaction; settings: cited from earlier work
RBP4 [5] = biological target: T2, RBP4; settings: cited from earlier work
[6] = system: retinal pigment epithelium cells; settings: many cell types, including retinal pigment epithelium cells; cited from earlier work

| Structure (SMILES) | levels of A2-DHP-PE and atRAL di-PE [1] | levels of A2E/isoA2E and other bisretinoids [1] | serum RBP4 level [1] | antagonism of retinol-dependent RBP4-TTR interaction (HTRF), in words (RBP4-TTR interaction [2]) | IC50 (RBP4-TTR interaction [2]) | RBP4 binding (SPA), in words (RBP4 [3]) | IC50 (RBP4 [3]) | A2E production (Abca4−/− mice) | ocular all-trans retinol uptake (serum RBP4 and retinol) | serum RBP4 and retinol (serum RBP4 and retinol) | formation of hemangiosarcomas (mice) | RBP4-TTR interaction (RBP4-TTR interaction [4]) | binding to RBP4 (RBP4 [5]) | displacement of all-trans retinol from RBP4 (RBP4 [5]) | induction of apoptosis [6] |
| --- | --- | --- | --- | --- | --- | --- | --- | --- | --- | --- | --- | --- | --- | --- | --- |
| COC(=O)c1cc(C)nc(N2C[C@@H]3CN(c4ccccc4C(F)(F)F)C[C@@H]3C2)n1 [Compound 66, Methyl 6-methyl-2-((3aR,6aS)-5-(2-(trifluoromethyl)phenyl)hexahydropyrrolo[3,4-c]pyrrol-2(1H)-yl)pyrimidine-4-carboxylate] | also reduced | reduced | reduction | antagonized retinol-dependent RBP4-TTR interaction | 74 nM | binded to RBP4 | 3.9 nM |  |  |  |  |  |  |  |  |
| Cc1cc(C(=O)O)nc(N2C[C@@H]3CN(c4ccccc4C(F)(F)F)C[C@@H]3C2)n1 [Compound 67, 6-Methyl-2-((3aR,6aS)-5-(2-(trifluoromethyl)phenyl)hexahydropyrrolo[3,4-c]pyrrol-2(1H)-yl)pyrimidine-4-carboxylic Acid] | also reduced | reduced | reduction |  |  |  |  |  |  |  |  |  |  |  |  |
| CC1=C(/C=C/C(C)=C/C=C/C(C)=C/C(=O)Nc2ccc(O)cc2)C(C)(C)CCC1 [fenretinide, N-(4-hydroxy-phenyl)retinamide] |  |  |  |  |  |  |  | reduced A2E production | inhibit ocular all-trans retinol uptake | reduce serum RBP4 and retinol | stimulate formation of hemangiosarcomas | disrupt the RBP4-TTR interaction | bind to RBP4 | displace all-trans retinol from RBP4 | extremely active inducer of apoptosis |
| Cc1ccc2nnc(C(=O)N3C[C@@H]4CN(c5ccccc5C(F)(F)F)C[C@@H]4C3)n2c1 [Compound 65, (6-Methyl-[1,2,4]triazolo[4,3-a]pyridin-3-yl)((3aR,6aS)-5-(2-(trifluoromethyl)phenyl)hexahydropyrrolo[3,4-c]pyrrol-2 (1H)-yl)methanone] |  |  |  | antagonized retinol-dependent RBP4-TTR interaction | 20.8 nM | binded to RBP4 | 1.68 nM |  |  |  |  |  |  |  |  |
